The values that follow come from ChEMBL document CHEMBL5149994, “Anticancer potential of indirubins in medicinal chemistry: Biological activity, structural modification, and structure-activity relationship” (Eur J Med Chem, 2021).

The test system of series [1] is SW480. Nature of the series: Antiproliferative activity against human SW480 cells assessed as cell growth inhibition. The series is classed as functional, cell-based.
The test system of series [2] is HepG2. Nature of the series: Antiproliferative activity against human HepG2 cells assessed as cell growth inhibition. The format is functional, cell-based.
The subject of series [3] is HL-60. Kind of series: Antiproliferative activity against human HL-60 cells assessed as cell growth inhibition. The format is functional, cell-based.
Series [4] in a line: Antiproliferative activity against human Lu1 cells assessed as cell growth inhibition. The format is functional, cell-based.
A further series has as its target CDK2/Cyclin A2 (Homo sapiens, UniProt P24941). Nature of the series: Inhibition of CDK2/cyclin A (unknown origin). The series is classed as protein-complex assay.
The next series deals with DU-145. Nature of the series: Antiproliferative activity against human DU-145 cells assessed as cell growth inhibition by MTT assay. The format is functional, cell-based. Background: Tetrazolium assays rely on reduction of a dye to a coloured formazan, in cell work by metabolically active cells.
A further series deals with LoVo. Kind of series: Cytotoxicity against human LoVo cells assessed as cell growth inhibition by MTT assay. The series is classed as functional, cell-based.
The test system of series [5] is MCF7. Kind of series: Cytotoxicity against human MCF7 cells assessed as cell growth inhibition by MTT assay. The format is functional, cell-based.
The next series has as its system LNCaP. Kind of series: Cytotoxicity against human LNCaP cells assessed as cell growth inhibition by MTT assay. The format is functional, cell-based.
In series [6] the test system is MCF7. Nature of the series: Cytotoxicity against human MCF7 cells assessed as cell growth inhibition. The format is functional, cell-based.
A further series relates to SK-MEL-147. Kind of series: Cytotoxicity against human SK-MEL-147 cells assessed as cell growth inhibition measured after 24 hrs by WST-1 assay. The format is functional, cell-based. The conditions noted are these: SK-MEL-147, 24 h.
The nature of series [7]: Cytotoxicity against human SK-MEL-29 cells assessed as cell growth inhibition measured after 24 hrs by WST-1 assay. The series is classed as functional, cell-based. The conditions noted are these: SK-MEL-29, 24 h.
The subject of another series is SK-MEL-103. Nature of the series: Cytotoxicity against human SK-MEL-103 cells assessed as cell growth inhibition measured after 24 hrs by WST-1 assay. The series is classed as functional, cell-based. The conditions noted are these: SK-MEL-103, 24 h.
Another series deals with SK-MEL19. Nature of the series: Cytotoxicity against human SK-MEL19 cells assessed as cell growth inhibition measured after 24 hrs by WST-1 assay. Conditions: SK-MEL19, 24 h. The series is classed as functional, cell-based.
In series [8] the test system is MCF7. Kind of series: Cytotoxicity against human MCF7 cells assessed as cell growth inhibition measured after 4 days by crystal violet staining based assay. The format is functional. Conditions: MCF7, 96 h.
Series [9] can be described thus: Inhibition of GST-tagged recombinant human CDK2/cyclin E expressed in Sf9 cells incubated for 10 mins in presence of [33P]-gamma ATP and ATP by scintillation counter method.
Series [10] can be described thus: Kinetic solubility of compound in PBS at pH 7.4. The format is physicochemical. The conditions noted are these: read-out: Kinetic_solubility.
A further series has as its system CH1. Kind of series: Antiproliferative activity against human CH1 cells assessed as cell growth inhibition measured after 96 hrs by MTT assay. The format is functional, cell-based. The conditions noted are these: CH1, 96 h.
The next series has as its system A549. Kind of series: Antiproliferative activity against human A549 cells assessed as cell growth inhibition measured after 96 hrs by MTT assay. The format is functional, cell-based. Conditions: A549, 96 h.
Series [11] has as its system SW480. Kind of series: Antiproliferative activity against human SW480 cells assessed as cell growth inhibition measured after 96 hrs by MTT assay. The series is classed as functional, cell-based. Conditions: SW480, 96 h.
Series [12] has as its target Indoleamine 2,3-dioxygenase 1 (Homo sapiens, UniProt P14902). Kind of series: Inhibition of IDO1 in human Hela cells assessed as reduction in N-formylkynurenine formation incubated for 30 mins. The series is classed as cell-based.
In another series the test system is K562. Nature of the series: Antiproliferative activity against human K562 cells assessed as cell growth inhibition measured after 48 hrs by CCK-8 assay. The series is classed as functional, cell-based. Conditions: K562, 48 h.
A further series has as its system NCI-H157. Nature of the series: Cytotoxicity against human NCI-H157 cells assessed as cell growth inhibition at 100 uM by calcein-AM staining based flow cytometry analysis relative to control. The format is functional. On the set-up: scale not given: the % may be the effect or the level left.
The subject of series [13] is HL-60. Kind of series: Antiproliferative activity against human HL-60 cells assessed as cell growth inhibition measured after 72 hrs by MTT assay. The series is classed as functional, cell-based. The conditions noted are these: HL-60, 72 h.
The test system of series [14] is HepG2. Nature of the series: Antiproliferative activity against human HepG2 cells assessed as cell growth inhibition measured after 72 hrs by MTT assay. The series is classed as functional, cell-based. Conditions: HepG2, 72 h.
Series [15] in a line: Antiproliferative activity against human Lu1 cells assessed as cell growth inhibition measured after 72 hrs by MTT assay. The conditions noted are these: Lu1, 72 h. The format is functional, cell-based.
In series [16] the test system is SW480. Kind of series: Antiproliferative activity against human SW480 cells assessed as cell growth inhibition measured after 72 hrs by MTT assay. The series is classed as functional, cell-based. The conditions noted are these: SW480, 72 h.
A further series relates to MV4-11. Kind of series: Cytotoxicity in human MV4-11 cells assessed as cell growth inhibition incubated for 48 hrs by propidium iodide staining based flow cytometry assay. The series is classed as functional. (In flow cytometry, cells or beads pass a laser one at a time.)

≈ marks a conversion by molar mass, not a printed value.

Chain of Indoleamine 2,3-dioxygenase 1 (P14902 whole entry): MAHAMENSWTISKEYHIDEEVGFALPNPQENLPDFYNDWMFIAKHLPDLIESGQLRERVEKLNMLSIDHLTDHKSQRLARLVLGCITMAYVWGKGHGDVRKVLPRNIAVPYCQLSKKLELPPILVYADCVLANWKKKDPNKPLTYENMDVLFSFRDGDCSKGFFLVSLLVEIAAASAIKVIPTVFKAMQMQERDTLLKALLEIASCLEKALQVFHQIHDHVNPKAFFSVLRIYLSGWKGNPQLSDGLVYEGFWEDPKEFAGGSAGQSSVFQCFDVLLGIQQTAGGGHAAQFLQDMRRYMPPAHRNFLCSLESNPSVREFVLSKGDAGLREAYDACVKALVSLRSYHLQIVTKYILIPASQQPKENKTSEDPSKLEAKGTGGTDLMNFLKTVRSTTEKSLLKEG

What is called IC50 is the concentration that gives 50% inhibition. `Cc1cccc(Nc2nnc(SCC(O)CO/N=C3/C(=C4/C(=O)Nc5ccccc54)Nc4ccccc43)s2)c1C` (configuration not stated): the IC50 in the series on SW480 [1] worked out at 16 µM; with HepG2 [2], 15.3 µM; in the series on HL-60 [3] it was 12 µM; in [4], 19.1 µM.

`CCN1C(=O)/C(=C2\Nc3ccccc3C2=O)c2cccnc21`: the IC50 against CDK2/Cyclin A2 is 1.2 µM; with DU-145, 40 µM.

With `CCCN1C(=O)/C(=C2\Nc3ccccc3\C2=N/O)c2ccccc21`, the IC50 amounted to 67.5 µM with LoVo, 87.6 µM in the series on MCF7 [5] and 77.1 µM with LNCaP.

For the molecule `C[C@@H]1O[C@@H](N2C(=O)/C(=C3\Nc4ccccc4C3=O)c3ccccc32)[C@H](O)[C@H](O)[C@H]1O`, the IC50 in the series on MCF7 [6] came to 0.76 µM.

As for `O=C1/C(=C2/C(=O)N([C@H]3O[C@H](CO)[C@@H](O)[C@H](O)[C@@H]3O)c3ccccc32)Sc2ccccc21`, the IC50 in the series on SK-MEL-147 worked out at 4.28 µM; in series [7], 3.96 µM; in the series on SK-MEL-103 it was 6.69 µM; with SK-MEL19 it was 5.81 µM.

With `CN(C)CCN(C)S(=O)(=O)c1ccc2c(c1)/C(=C1/Nc3ccccc3C1(C)O)C(=O)N2` (configuration not stated), the IC50 with MCF7 [8] was under 0.1 µM; in series [9], 0.07 µM. Further, the solubility kinetic in [10] is over 40 µg/mL.

In the case of `NCCO/N=C1/C(=C2/C(=O)Nc3ccccc32)Nc2ccc(O)cc21`, the IC50 with CH1 was determined as 1.3 µM; in the series on A549, 13 µM; in the series on SW480 [11] it was 2.5 µM.

As to `CC(C)N1C(=O)/C(=C2\Nc3ccccc3C2=O)c2cccnc21`, the midpoint of inhibition against CDK2/Cyclin A2, the IC50, lay at 9.5 µM.

In the case of `CN(C)S(=O)(=O)c1ccc2c(c1)/C(=C1/Nc3ccccc3C1(C)O)C(=O)N2` (configuration not stated), the IC50 with MCF7 [8] came to 0.7 µM; in [9], 0.07 µM. The solubility kinetic in series [10] is over 40 µg/mL.

Consider `CN(C)S(=O)(=O)c1ccc2c(c1)/C(=C1/Nc3ccccc3/C1=N\O)C(=O)N2`, for which the IC50 in the series with MCF7 [8] amounted to 0.4 µM; in series [9], 0.04 µM. The solubility kinetic in series [10] was under 1 µg/mL.

For `Cc1cn(C2CC(n3cc(COCCOCCOCCN4C(=O)/C(=C5\Nc6ccccc6C5=O)c5ccccc54)nn3)C(CO)O2)c(=O)[nH]c1=O` (configuration not stated), the IC50 was found to be 54.7 µM in [12] and 34.2 µM with K562.

With `C[C@@H]1O[C@H](N2C(=O)/C(=C3\Sc4ccccc4C3=O)c3ccccc32)[C@H](O)[C@H](O)[C@H]1O`, the IC50 is 7.52 µM with SK-MEL-147, 6.29 µM in series [7], 10.4 µM with SK-MEL-103 and 12 µM with SK-MEL19.

On to `O=C1CCC(N2C(=O)c3cccc(-n4cc(COCCOCCOCCN5C(=O)/C(=C6\Nc7ccccc7C6=O)c6ccccc65)nn4)c3C2=O)C(=O)N1` (configuration not stated), for which the IC50 amounted to 33.9 µM in series [12] and 42.2 µM with K562.

`CN1C(=O)/C(=C2\Nc3ccc(Cl)cc3\C2=N/O)c2cccnc21`: in the series with DU-145, the IC50 amounted to 1.8 µM.

As to `C[C@@H]1O[C@H](N2C(=O)/C(=C3\[Se]c4ccccc4C3=O)c3ccccc32)[C@H](O)[C@H](O)[C@H]1O`, the Activity in the series with NCI-H157 is 16.7%.

Regarding `CCN1C(=O)/C(=C2\Nc3ccccc3\C2=N/O)c2cccnc21`, in the series on DU-145, the 50% inhibitory concentration (IC50) is 8 µM.

For `CCOc1ccccc1/C=C/C(=O)c1ccc(OCCn2cc(CN3C(=O)/C(=C4\Nc5ccccc5\C4=N/O)c4ccccc43)nn2)cc1O`, the IC50 is 0.98 µM with HL-60 [13], 2.01 µM in the series with HepG2 [14], 1.3 µM in [15] and 2.54 µM in the series on SW480 [16].

For orientation: GI50 means the concentration that inhibits growth by half. With `COC(=O)c1ccc2c(c1)/C(=C1/Nc3ccccc3/C1=N\O)C(=O)N2`, in the series on MV4-11, the GI50 was 0.0541 µM.

Consider `CN(C)CCN(C)S(=O)(=O)c1ccc2c(c1)/C(=C1/Nc3ccccc3C1=O)C(=O)N2`, for which the IC50 in the series on MCF7 [8] was under 0.1 µM; in series [9] it was 0.01 µM. In addition, the solubility kinetic in series [10] is 12 µg/mL (≈ 28.1 µM).

As for `CN(C)S(=O)(=O)c1ccc2c(c1)/C(=C1/Nc3ccccc3C1=O)C(=O)N2`, the IC50 with MCF7 [8] was over 10 µM; in [9] it was 0.04 µM. For the same molecule, the solubility kinetic in series [10] was under 1 µg/mL.

For the molecule `C=CCC1(O)/C(=C2/C(=O)Nc3ccc(S(=O)(=O)N(C)C)cc32)Nc2ccccc21` (configuration not stated), the figures for the IC50 (with MCF7 [8]; in series [9]) were 0.2 µM and 0.09 µM, respectively. For the same molecule, in [10], the solubility kinetic stood at 31 µg/mL (≈ 75.3 µM).
